Results: patent US8193191B2, “Urotensin II receptor antagonists” (Janssen Pharmaceutica N.V., priority 2006, dated 2012)
pIC50, pKi: −log10 of the molar value. Values joined by “and” are separate entries in the source; they are usually repeats but may differ in a detail not shown here. Equal entries are not always repeated. Where two headings read alike, the source gives them in different places.

Columns and labels:
[1] = target: T1, Human UII receptor, 6D9 human rhabdomyosarcoma cells (Homo sapiens, UniProt Q9UKP6); experiment: Human UII Calcium Mobilization Assay; format: cell-based; conditions: average value, FLIPR TETRA, read-out: Human UII Ca^+ Mobilization Average IC50
T1 construct: 6D9: isolated by dilution subcloning of RMS13 cells, ATCC® Number: CRL-2061; host or cells: 6D9 human rhabdomyosarcoma cells (subclone of RMS13)
T1 sequence (Q9UKP6 1-389): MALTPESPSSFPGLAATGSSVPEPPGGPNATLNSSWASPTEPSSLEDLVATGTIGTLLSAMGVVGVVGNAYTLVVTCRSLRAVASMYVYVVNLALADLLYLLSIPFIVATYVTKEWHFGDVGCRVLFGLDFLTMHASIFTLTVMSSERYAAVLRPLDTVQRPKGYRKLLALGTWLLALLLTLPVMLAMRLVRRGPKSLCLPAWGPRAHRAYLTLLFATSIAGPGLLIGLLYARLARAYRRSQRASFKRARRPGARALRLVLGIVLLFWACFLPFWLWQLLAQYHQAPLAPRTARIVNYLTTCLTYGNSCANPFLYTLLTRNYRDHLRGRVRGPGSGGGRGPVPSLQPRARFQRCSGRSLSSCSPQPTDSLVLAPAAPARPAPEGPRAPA
Method: 6D9 human rhabdomyosarcoma cells were seeded into tissue culture treated 384-well black-walled clear bottom plates (3712, Corning Incorporated, Corning, N.Y.) at 8,000 cells/well in 25 μL of culture medium, and maintained in an incubator (5% CO2 at 37° C.) for 22 hrs prior to the calcium mobilization assay. 25 μL of dye solution was added to the wells such that the final liquid volume before agonist/antagonist treatment was 50 μL for all assays. The cell plates were incubated at 37° C. for 45 minutes and the fluorescence intensity was measured on a Fluorometric Imaging Plate Reader (FLIPR^TETRA, Molecular Devices, Sunnyvale, Calif.).
Antagonist and agonist U-II were added at room temperature on the FLIPR^TETRA, and the fluorescence intensity before and after addition was measured over a period of 4 minutes. The dye incubation time and temperature as well as instrument setting was adjusted so the fluorescence intensity could be compared between plates on the same day. EC50 and IC50 were analyzed using GraphPad Prism 4 software (GraphPad Software Inc., San Diego, Calif.).
Materials and reagent Preparation: Human Rhabdomyosarcoma cells (6D9: isolated by dilution subcloning of RMS13 cells, ATCC® Number: CRL-2061, American Type Culture Collection ATCC, Manassas, Va.) was maintained in RPMI-1640 medium (30-2001, ATCC, Manassas, Va.) supplemented with 10% (v/v) Fetal Bovine Serum (SH30071.03, Hyclone, Logan, Utah).
Dye preparation: BD™ Calcium Assay Kit (80500-301, BD Biosciences, Rockville, Md.) was prepared according to the manufacture's instruction in 1× Hanks' balanced salt solution (HBSS, 21-023-CV, Mediatech, Inc. Herndon, Va.) containing 20 mM HEPES buffer (25-060-CI, Mediatech, Inc. Herndon, Va.). Final dye loading conditions included 1.25 mM probenecid (P36400, Invitrogen, Carlsbad, Calif.) and 0.01% FBS.
Urantide (PUT-3639-PI, Peptide International, Louisville, Ky.) was prepared in water at 5 mM. For assays, U-II agonist, U-II antagonist and urantide were diluted with HBSS/HEPES containing 0.01% FBS.
Test compounds were dissolved in DMSO at 10 mM concentration. The serial dilutions were carried out in HBSS/HEPES. The highest final DMSO concentration was at 0.1%.

[2] = target: T2, rat GPR14 (U-II receptor) (Rattus norvegicus, UniProt P49684); experiment: Rat UII Calcium Mobilization FLIPR Assay; format: cell-based; conditions: for inhibition at 10 µM / inhibition at 50 µM: CHO, 5 min, agonist-induced Ca2+ mobilization (FLIPR), CHO cells with rat UII receptor; for inhibition at 10 µM: 10 μM compound, read-out: % I @ 10; for inhibition at 50 µM: 50 μM compound, read-out: % I @ 50
T2 construct: expressed in transfected cells
T2 sequence (P49684 1-386): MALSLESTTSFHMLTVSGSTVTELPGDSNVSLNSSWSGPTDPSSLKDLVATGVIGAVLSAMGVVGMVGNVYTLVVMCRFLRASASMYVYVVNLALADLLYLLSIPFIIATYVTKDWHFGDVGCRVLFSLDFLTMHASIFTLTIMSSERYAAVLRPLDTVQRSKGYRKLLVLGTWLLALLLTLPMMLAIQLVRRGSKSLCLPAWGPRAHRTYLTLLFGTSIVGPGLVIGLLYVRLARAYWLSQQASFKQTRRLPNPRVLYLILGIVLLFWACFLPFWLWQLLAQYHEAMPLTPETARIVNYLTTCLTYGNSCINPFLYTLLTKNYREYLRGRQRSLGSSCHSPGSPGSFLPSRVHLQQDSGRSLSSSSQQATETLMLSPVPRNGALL
How it was run: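 CHO cells stably expressing rat U-II receptor, seeded 24 h before assay, were loaded with FLIPR calcium dye in HBSS/20 mM HEPES/0.1% BSA/2.5 mM probenecid, pH 7.4, for 1 h at 37° C. Calcium mobilization then read by FLIPR at 23° C.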

[3] = target: T3, endogenous human UII receptor (Homo sapiens, UniProt Q9UKP6); experiment: Human Radioligand Binding Assay ((^125I)-U-II binding to human skeletal muscle myoblasts)
T3 sequence (Q9UKP6 1-389): T1 sequence (Q9UKP6 1-389)

[4] = average value for the compound tested, read-out: Rat UII FLIPR Average IC50
[5] = Inhibition of human UII binding to human skeletal muscle myoblasts containing endogenous human UII receptor
[6] = Inhibition of Acetyl-cyclic[Cys-Phe-Trp-Lys-(2-Nal)-Cys]-NH2 induced Ca2+ mobilization (FLIPR) in CHO cells transfected with rat UII receptor, read-out: IC50

| SMILES | pIC50 [1] | pIC50 [2, 4] | pKi [3] | pKi [3, 5] | inhibition at 10 µM [2] [%] | inhibition at 50 µM [2] [%] | pIC50 [2, 6] | IC50 ([2]; IC50 (μM), Inhibition of Acetyl-cyclic[Cys-Phe-Trp-Lys-(2-Nal)-Cys]-NH2 induced Ca2+ mobilization (FLIPR) in CHO cells transfected with rat UII receptor) [µM] |
| --- | --- | --- | --- | --- | --- | --- | --- | --- |
| COc1ccc(C(CCNC(=O)Cc2ccncc2)N2C(=O)c3cccc(N4CCN([C@H](C)c5ccccc5)CC4)c3C2=O)cc1OC (stereo partly drawn) [Cpd 103, N-(3-(3,4-dimethoxy-phenyl)-3-{1,3-dioxo-4-[4-(1R)-(1-phenyl-ethyl)-piperazin-1-yl]-1,3-dihydro-isoindol-2-yl}-propyl)-2-pyridin-4-yl-acetamide] | 6.23 | 7.46 |  |  |  |  |  |  |
| C/C=C(\C)CN1CCN(c2cccc3c2C(=O)N(Cc2ccc(OC)c(OC)c2)C3=O)CC1 [Cpd 86, (E)-2-(3,4-dimethoxy-benzyl)-4-[4-(2-methyl-but-2-enyl)-piperazin-1-yl]-isoindole-1,3-dione] |  | 6.54 | 5.89 |  |  |  |  |  |
| COc1ccc(CN2C(=O)c3cccc(N4CCN(Cc5cccnc5)CC4)c3C2=O)cc1OC [Cpd 79, 2-(3,4-dimethoxy-benzyl)-4-(4-pyridin-3-ylmethyl-piperazin-1-yl)-isoindole-1,3-dione] |  | 5.92 | < 5.00 |  |  |  |  |  |
| COc1ccc(C(CCCN)N2C(=O)c3cccc(N4CCN([C@H](C)c5ccccc5)CC4)c3C2=O)cc1OC (stereo partly drawn) [Cpd 66, 2-[4-amino-1-(3,4-dimethoxy-phenyl)-butyl]-4-[4-(1R)-(1-phenyl-ethyl)-piperazin-1-yl]-isoindole-1,3-dione] |  |  |  | 5.49 | 101 | 97 | 6.70 |  |
| CCC(c1ccc(OC)c(OC)c1)N1C(=O)c2cccc(N3CCN([C@H](C)c4ccccc4)CC3)c2C1=O (stereo partly drawn) [Cpd 8, 2-[1-(3,4-dimethoxy-phenyl)-propyl]-4-[4-(1R)-(1-phenyl-ethyl)-piperazin-1-yl]-isoindole-1,3-dione] |  |  |  | 6.51 | 100 | 100 | 6.74 |  |
| COc1ccc(CN2C(=O)c3cccc(C4CCN(Cc5ccccc5)CC4)c3C2=O)cc1OC [Cpd 76, 4-(1-benzyl-piperidin-4-yl)-2-(3,4-dimethoxy-benzyl)-isoindole-1,3-dione] |  |  | 5.82 |  | 98 | 99 | 6.02 |  |
| COc1ccc(CN2C(=O)c3cccc(N4CCN(Cc5cccc(F)c5)CC4)c3C2=O)cc1OC [Cpd 17, 2-(3,4-dimethoxy-benzyl)-4-[4-(3-fluoro-benzyl)-piperazin-1-yl]-isoindole-1,3-dione] |  |  | 5.46 |  | 99 | 101 | 5.96 |  |
| COc1ccc(C(CCCCN)N2C(=O)c3cccc(N4CCN([C@H](C)c5ccccc5)CC4)c3C2=O)cc1OC (stereo partly drawn) [Cpd 70, 2-[5-amino-1-(3,4-dimethoxy-phenyl)-pentyl]-4-[4-(1R)-(1-phenyl-ethyl)-piperazin-1-yl]-isoindole-1,3-dione] |  |  | 5.27 |  | 102 | 101 | 6.52 and 6.57 |  |
| COc1ccc(C(CCCNS(C)(=O)=O)N2C(=O)c3cccc(N4CCN([C@H](C)c5ccccc5)CC4)c3C2=O)cc1OC (stereo partly drawn) [Cpd 67, N-(4-(3,4-dimethoxy-phenyl)-4-{1,3-dioxo-4-[4-(1R)-(1-phenyl-ethyl)-piperazin-1-yl]-1,3-dihydro-isoindol-2-yl}-butyl)-methanesulfonamide] |  |  | 5.85 |  | 101 | 99 | 7.00 | 0.11 |

The next lines start with results.

| pIC50 [1] | pIC50 [2, 4] | pKi [3] | pKi [3, 5] | inhibition at 10 µM [2] [%] | inhibition at 50 µM [2] [%] | pIC50 [2, 6] | SMILES | IC50 ([2]; IC50 (μM), Inhibition of Acetyl-cyclic[Cys-Phe-Trp-Lys-(2-Nal)-Cys]-NH2 induced Ca2+ mobilization (FLIPR) in CHO cells transfected with rat UII receptor) [µM] |
| --- | --- | --- | --- | --- | --- | --- | --- | --- |
| 5.35 | 6.49 |  |  |  |  |  | CCN1CCN(c2cccc3c2C(=O)N([C@H](CCCOS(=O)(=O)c2cccs2)c2ccc(OC)c(OC)c2)C3=O)CC1 [Cpd 208, (R)-thiophene-2-sulfonic acid 4-(3,4-dimethoxy-phenyl)-4-[4-(4-ethyl-piperazin-1-yl)-1,3-dioxo-1,3-dihydro-isoindol-2-yl]-butyl ester] |  |
| 6.70 | 8.12 |  |  |  |  |  | CCN1CCN(c2cccc3c2C(=O)N([C@H](CCCNS(=O)(=O)c2c(C)nn(C)c2C)c2ccc(OC)c(OC)c2)C3=O)CC1 [Cpd 204, (R)-1,3,5-trimethyl-1H-pyrazole-4-sulfonic acid {4-(3,4-dimethoxy-phenyl)-4-[4-(4-ethyl-piperazin-1-yl)-1,3-dioxo-1,3-dihydro-isoindol-2-yl]-butyl}-amide] |  |
| 6.46 | 8.19 |  |  |  |  |  | COc1ccc([C@@H](CCCNS(=O)(=O)c2cnc(C)n2C)N2C(=O)c3cccc(N4CCN([C@H](C)c5ccccc5)CC4)c3C2=O)cc1OC [Cpd 127, (R)-2,3-dimethyl-3H-imidazole-4-sulfonic acid (4-(3,4-dimethoxy-phenyl)-4-{1,3-dioxo-4-[4-(1R)-(1-phenyl-ethyl)-piperazin-1-yl]-1,3-dihydro-isoindol-2-yl}-butyl)-amide] |  |
| < 5.00 | 5.68 |  |  |  |  |  | COc1ccc([C@@H](CCCNS(=O)(=O)c2cccs2)N2C(=O)c3cccc(N4CCN(CC(F)(F)F)CC4)c3C2=O)cc1OC [Cpd 195, (R)-thiophene-2-sulfonic acid (4-(3,4-dimethoxy-phenyl)-4-{1,3-dioxo-4-[4-(2,2,2-trifluoro-ethyl)-piperazin-1-yl]-1,3-dihydro-isoindol-2-yl}-butyl)-amide] |  |
| 5.96 | 7.01 |  |  |  |  |  | COc1ccc([C@@H](CCCNc2ccccn2)N2C(=O)c3cccc(N4CCN([C@H](C)c5ccccc5)CC4)c3C2=O)cc1OC [Cpd 142, (R)-2-[1-(3,4-dimethoxy-phenyl)-4-(pyridin-2-ylamino)-butyl]-4-[4-(1R)-(1-phenyl-ethyl)-piperazin-1-yl]-isoindole-1,3-dione] |  |
| < 5.52 | 5.43 |  |  |  |  |  | COc1ccc([C@@H](CCCNC(=O)C(C)C)N2C(=O)c3cccc(OC4CCN(C)CC4)c3C2=O)cc1OC [Cpd 205, (R)-N-{4-(3,4-dimethoxy-phenyl)-4-[4-(1-methyl-piperidin-4-yloxy)-1,3-dioxo-1,3-dihydro-isoindol-2-yl]-butyl}-isobutyramide] |  |
| 6.16 | 7.55 |  |  |  |  |  | COc1ccc([C@@H](CCCNC(=O)CN(C)C)N2C(=O)c3cccc(N4CCN([C@H](C)c5ccccc5)CC4)c3C2=O)cc1OC [Cpd 143, (R)-N-(4-(3,4-dimethoxy-phenyl)-4-{1,3-dioxo-4-[4-(1R)-(1-phenyl-ethyl)-piperazin-1-yl]-1,3-dihydro-isoindol-2-yl}-butyl)-2-dimethylamino-acetamide] |  |
